# Values joined by “and” are separate entries in the source; they are usually repeats but may differ in a detail not shown here. Identical values can stand only once. “Also recorded” adds a separate entry of the source. Like-named read-outs stand apart in the source and are kept apart here.
# Legend:
# SLI-N309K parasites = test: Growth inhibition assay (72 h, LDH activity); type: cell-based, Plasmodium falciparum; settings: for Growth inhibition, (1 - av / DMSO) x 100: Fig 2B source data, per biological replicate; for sample/DMSO: START(N309K), biological replicates 1-4; for EC50: Plasmodium falciparum
# Protocol: Parasite growth assays with inhibitory compounds were performed as per[11] and are fully described in the Supplementary Information.
# Molecular biology and transfection of P. falciparum: Selection Linked Integration […]
# To introduce the PfSTART1 mutations, the second half of the coding sequence of pfstart1 (PF3D7_0104200), was recodonised without introns to the bias of Saccharomyces cerevisiae containing either WT, N309K or N330K mutations, and synthesised as gBlock fragments (Integrated DNA Technologies). The first 819 bp of the 5′ native sequence of pfstart1 was amplified from gDNA, to form the 5’ homology block (5’ HB). The 3′ recodonised gBlock fragment comprising of the last 552 bp of either the WT, N309K or N330K pfstart1 to form the ‘recodon’ block (primers listed in Table S2). The 5’ HB and recodon products were sewn together by overlapping PCR to reconstitute the full coding sequence of pfstart1. These blocks (WT/N309K/N330K) were digested with BglII/PstI, and inserted into the parasite vector p-HA-2A-Neo-glmS
# 1. This plasmid contains an in -frame haemagglutinin (HA) epitope for protein identification and a P2A peptide (2A) to skip continuous peptide bond synthesis of a downstream neomycin resistance gene ( NeoR).
# Parasites containing the transfected DNA were selected using 2.5 nM WR99210 (Jacobus). To select for parasites in which single crossover integration had occurred into the pfstart1 locus, parasites were treated with 400 μg/mL G418 (geniticin, Sigma Aldrich) for 14 days: only parasites that have integrated the construct into their genome expressed the neomycin resistance gene together with the PfSTART1 protein.
# Parasite lines were cloned using limiting dilution. These clones were then tested on Western Blot (for correct HA-tagging and protein size), and correct integration and sequence were tested by PCR analysis: PCR on the gDNA was conducted using the primers START_5’UTR.F and START_Seq.R (Table S2). […]
# Growth inhibition assays. Synchronised ring-stage parasites (0.3-0.6% parasitemia, 2% haematocrit) were grown for 72 h in a serial-dilution of the compound under […]
# and compound 4. Note that M-833 was first purchased from MolPort (MolPort -002-267-916) then made in-house at WEHI: the differences observed in EC50s across experiments are attributed to the different batches of M -833. For some experiments, 0, 0.25 or 2.5 mM of glucosamine (GlcN) was also added. Experiments were set up in technical duplicates or triplicates. Following a freeze -thaw cycle, lactate dehydrogenase (LDH) activity was assessed as an indicator of parasite growt h 5. 30 μL of parasite culture was incubated for 30 min in the dark with 75 μL Malstat mixture (0.1 M Tris pH 9.0, 20 g/L lactic acid, pH 7.5, 0.2% Triton-X100, 0.5 g/L acetylpyridine adenine dinucleotide (APAD, Sigma), 200 μg/mL nitroblue tetrazolium (NBT; Sigma), 1 μg/mL phenozine ethosulfate (PES; Sigma)). Absorbance was then measured at 650 nm, transformed using the formula below, plotted against the logarithm of the concentrations, and a non-linear regression (log(inhibitor) vs. response, variable slope) was calculated using GraphPad Prism to assess the half-inhibitory […]
# Growth inhibition % = (1 − average(sample)− average(uRBC)) ∗ 100 […]
# The DMSO samples were also used to assess growth of parasite in the presence of 0.25 and 2.5 mM GlcN (normalised by DMSO in 0 mM GlcN).
# Egress, invasion & recovery assay. To measure egress, invasion and follow up recovery in the presence of different compounds, we adapted the method developed in6, using Hyp1-Nluc parasites7. These parasites episomally express the exported PEXEL protein Hyp1 (PF3D7_0113300) tagged with a NanoLuc luciferase (NLuc) and were selected with 2.5 nM WR99210 (Jacobus). Highly synchronised schizonts were obtained using ML10 (LifeArc) and sorbitol synchronisation, and Percoll-purified (the culture was gently layered over 67% Percoll (Cytiva) in RPMI, and centrifuged for 15 min at 1500 g and the schizont layer was collected and washed). […]
# P. falciparum merozoites = tested on: P. falciparum merozoites; parameters: method as in earlier work; settings: live cell imaging; ref 11 (Dans et al 2020); cited from earlier work
smiles,measurement,setting,value
Cc1cc(Cl)c(S(=O)(=O)N2CCCC2)cc1OCC(=O)NC1CCCCC1 [M-833],"Growth inhibition, (1 - av / DMSO) x 100","SLI-N309K parasites; SLI-N309K, M-833 conc 0.00304832 (unit not given)",-28.2579% and -1.2093% and -11.368%
same,"Growth inhibition, (1 - av / DMSO) x 100","SLI-N309K parasites; SLI-N309K, M-833 conc 0.00914495 (unit not given)",-16.5589% and 4.977% and -8.756%
same,"Growth inhibition, (1 - av / DMSO) x 100","SLI-N309K parasites; SLI-N309K, M-833 conc 0.0274348 (unit not given)",-9.0535% and 17.7442% and 3.575%
same,"Growth inhibition, (1 - av / DMSO) x 100","SLI-N309K parasites; SLI-N309K, M-833 conc 0.0823045 (unit not given)",-11.797% and 21.4186% and -2.462%
same,"Growth inhibition, (1 - av / DMSO) x 100","SLI-N309K parasites; SLI-N309K, M-833 conc 0.246914 (unit not given)",-0.0196% and 23.5116% and 10.1477%
same,"Growth inhibition, (1 - av / DMSO) x 100","SLI-N309K parasites; SLI-N309K, M-833 conc 0.740741 (unit not given)",27.0233% and 58.6744% and 26.0116%
same,"Growth inhibition, (1 - av / DMSO) x 100","SLI-N309K parasites; SLI-N309K, M-833 conc 2.22222 (unit not given)",70.1744% and 76.5116% and 55.7482%
same,"Growth inhibition, (1 - av / DMSO) x 100","SLI-N309K parasites; SLI-N309K, M-833 conc 6.66667 (unit not given)",87.2624% and 94.814% and 86.8337%
same,"Growth inhibition, (1 - av / DMSO) x 100","SLI-N309K parasites; SLI-N309K, M-833 conc 20 (unit not given)",88.5166% and 95.5116% and 93.0422%
same,sample/DMSO,"SLI-N309K parasites; M-833 0.00152416 uM, 0 mM GlcN",2.39
same,sample/DMSO,"SLI-N309K parasites; M-833 0.00152416 uM, 0.25 mM GlcN",4.826 and 2.498
same,sample/DMSO,"SLI-N309K parasites; M-833 0.00152416 uM, 2.5 mM GlcN",6.332
same,sample/DMSO,"SLI-N309K parasites; M-833 0.00457247 uM, 0 mM GlcN",13.8723 and 0.5123 and 3.546 and -3.543
same,sample/DMSO,"SLI-N309K parasites; M-833 0.00457247 uM, 0.25 mM GlcN",7.1 and 10.4012 and -2.062 and -3.605
same,sample/DMSO,"SLI-N309K parasites; M-833 0.00457247 uM, 2.5 mM GlcN",13.3216 and 19.7117 and 1.5728 and -5.599
same,sample/DMSO,"SLI-N309K parasites; M-833 0.0137174 uM, 0 mM GlcN",7.619 and -0.2396 and 1.751 and 10.2857
same,sample/DMSO,"SLI-N309K parasites; M-833 0.0137174 uM, 0.25 mM GlcN",8.4852 and 5.851 and 4.488 and 5.637
same,sample/DMSO,"SLI-N309K parasites; M-833 0.0137174 uM, 2.5 mM GlcN",21.8449 and 8.908 and 5.227 and 1.886
same,sample/DMSO,"SLI-N309K parasites; M-833 0.0411523 uM, 0 mM GlcN",1.68 and 3.644 and 4.3 and 2.606
same,sample/DMSO,"SLI-N309K parasites; M-833 0.0411523 uM, 0.25 mM GlcN",17.5682 and 13.2615 and 4.177 and 1.848
same,sample/DMSO,"SLI-N309K parasites; M-833 0.0411523 uM, 2.5 mM GlcN",19.1718 and 12.6822 and 8.512 and 8.472
same,sample/DMSO,"SLI-N309K parasites; M-833 0.123457 uM, 0 mM GlcN",3.306 and 10.0306 and 17.9209 and 10.4229
same,sample/DMSO,"SLI-N309K parasites; M-833 0.123457 uM, 0.25 mM GlcN",21.665 and 12.0728 and 20.7856 and 13.6953
same,sample/DMSO,"SLI-N309K parasites; M-833 0.123457 uM, 2.5 mM GlcN",31.9676 and 15.6301 and 24.5056 and 24.9447
same,sample/DMSO,"SLI-N309K parasites; M-833 0.37037 uM, 0 mM GlcN",13.628 and 22.7795 and 30.4444 and 24.0457
same,sample/DMSO,"SLI-N309K parasites; M-833 0.37037 uM, 0.25 mM GlcN",34.9176 and 21.471 and 31.1561 and 33.3027
same,sample/DMSO,"SLI-N309K parasites; M-833 0.37037 uM, 2.5 mM GlcN",40.447 and 24.7651 and 37.6894 and 48.2393
same,sample/DMSO,"SLI-N309K parasites; M-833 1.11111 uM, 0 mM GlcN",28.3402 and 44.5509 and 44.7966 and 56.0914
same,sample/DMSO,"SLI-N309K parasites; M-833 1.11111 uM, 0.25 mM GlcN",53.0252 and 39.9238 and 58.0645 and 67.3975
same,sample/DMSO,"SLI-N309K parasites; M-833 1.11111 uM, 2.5 mM GlcN",64.9649 and 41.0107 and 63.8256 and 74.1417
same,sample/DMSO,"SLI-N309K parasites; M-833 3.33333 uM, 0 mM GlcN",62.0018 and 73.866 and 73.9333 and 81.5771
same,sample/DMSO,"SLI-N309K parasites; M-833 3.33333 uM, 0.25 mM GlcN",83.0296 and 69.5951 and 81.4805 and 87.3149
same,sample/DMSO,"SLI-N309K parasites; M-833 3.33333 uM, 2.5 mM GlcN",83.83 and 68.173 and 80.0856 and 88.1096
same,sample/DMSO,"SLI-N309K parasites; M-833 10 uM, 0 mM GlcN",89.1663 and 89.2589 and 93.2173 and 92.8571
same,sample/DMSO,"SLI-N309K parasites; M-833 10 uM, 0.25 mM GlcN",91.9813 and 85.912 and 92.402 and 91.8609
same,sample/DMSO,"SLI-N309K parasites; M-833 10 uM, 2.5 mM GlcN",89.5706 and 77.5672 and 88.9441 and 91.41
same,EC50,"SLI-N309K parasites; 72 h, Fig 2B, SLI-N309K, 72 h, n = 3, unit only in x-axis title, read-out: EC50 (95% confidence interval)",992 nM
same,EC50,"SLI-N309K parasites; Fig 3C, SLI-N309K, 0 mM GlcN, n = 4, unit on plot axis, read-out: EC50 M-833 (95% confidence interval)",1620 nM
same,EC50,"SLI-N309K parasites; Fig 3C, SLI-N309K, 0.25 mM GlcN, n = 4, unit on plot axis, read-out: EC50 M-833 (95% confidence interval)",968 nM
same,EC50,"SLI-N309K parasites; Fig 3C, SLI-N309K, 2.5 mM GlcN, n = 4, unit on plot axis, read-out: EC50 M-833 (95% confidence interval)",645 nM
same,fold more resistant than the 3D7 parental parasites,"SLI-N309K parasites; SLI-N309K, Fig 2B",10 fold
same,fold reduction of EC50 on addition of 2.5 mM GlcN,"SLI-N309K parasites; SLI-N309K, not statistically significant",2.5 fold
same,effect on merozoite invasion and ring differentiation,P. falciparum merozoites,invasion itself was slowed down but not reduced; also recorded: failed to differentiate into an amoeboid ring-stage parasite
